How the values were obtained:
[1] = test system: MDA-MB-468; experiment: NCI SRB GI50 screen; format: cell-based; details: Homo sapiens, Breast, 48 hrs exposure, read-out: Growth Inhibition GI50 MDA-MB-468
Procedure: (§1) 2-Anilino nicotinyl linked 2-amino benzothiazole conjugates of formula 9-12 were tested against fifty nine human cancer cell lines derived from nine cancer types (leukemia, non-small cell lung cancer, colon cancer, CNS cancer, melanoma, ovarian cancer, renal cancer, prostate cancer and breast cancer) as per NCI protocol. For each compound, dose response curves for individual cell lines were measured at a minimum of five concentrations at 10 fold dilutions. A protocol of 48 hrs continuous drug exposure was used, and a sulforhodamine B (SRB) protein assay was used to estimate cell viability or growth.

[2] = test system: UO-31; experiment: NCI SRB GI50 screen; format: cell-based; details: Homo sapiens, Renal, 48 hrs exposure, read-out: Growth Inhibition GI50 UO-31
Procedure: as §1

[3] = test system: SN12C; experiment: NCI SRB GI50 screen; format: cell-based; details: Homo sapiens, Renal, 48 hrs exposure, read-out: Growth Inhibition GI50 SN12C
Procedure: as §1

[4] = test system: SR; experiment: NCI SRB GI50 screen; format: cell-based; details: Homo sapiens, Leukemia, 48 hrs exposure, read-out: Growth Inhibition GI50 SR
Procedure: as §1

[5] = test system: T-47D; experiment: NCI SRB GI50 screen; format: cell-based; details: Homo sapiens, T47D; Breast, 48 hrs exposure; read-out: Growth Inhibition GI50 T-47D
Procedure: as §1

[6] = test system: SF-268; experiment: NCI SRB GI50 screen; format: cell-based; details: Homo sapiens, CNS, 48 hrs exposure, read-out: Growth Inhibition GI50 SF-268
Procedure: as §1

[7] = test system: NCI-H23; experiment: NCI SRB GI50 screen; format: cell-based; details: Homo sapiens, Non-small lung, 48 hrs exposure, read-out: Growth Inhibition GI50 NCI-H23
Procedure: as §1

[8] = test system: HL-60(TB); experiment: NCI SRB GI50 screen; format: cell-based; details: Homo sapiens, Leukemia, 48 hrs exposure, read-out: Growth Inhibition GI50 HL-60(TB)
Procedure: as §1

[9] = test system: MCF7; experiment: NCI SRB GI50 screen; format: cell-based; details: Homo sapiens, Breast, 48 hrs exposure, read-out: Growth Inhibition GI50 MCF7
Procedure: as §1

[10] = test system: SNB-19; experiment: NCI SRB GI50 screen; format: cell-based; details: Homo sapiens, CNS, 48 hrs exposure, read-out: Growth Inhibition GI50 SNB-19
Procedure: as §1

[11] = test system: HCT-116; experiment: NCI SRB GI50 screen; format: cell-based; details: Homo sapiens, Colon, 48 hrs exposure, read-out: Growth Inhibition GI50 HCT-116
Procedure: as §1

[12] = test system: EKVX; experiment: NCI SRB GI50 screen; format: cell-based; details: Homo sapiens, Non-small lung, 48 hrs exposure, read-out: Growth Inhibition GI50 EKVX
Procedure: as §1

[13] = test system: MOLT-4; experiment: NCI SRB GI50 screen; format: cell-based; details: Homo sapiens, Leukemia, 48 hrs exposure, read-out: Growth Inhibition GI50 MOLT-4
Procedure: as §1

[14] = test system: U251; experiment: NCI SRB GI50 screen; format: cell-based; details: Homo sapiens, U-251; CNS, 48 hrs exposure; read-out: Growth Inhibition GI50 U251
Procedure: as §1

[15] = test system: CAKI-1; experiment: NCI SRB GI50 screen; format: cell-based; details: Homo sapiens, Renal, 48 hrs exposure, read-out: Growth Inhibition GI50 CAKI-1
Procedure: as §1

[16] = test system: TK-10; experiment: NCI SRB GI50 screen; format: cell-based; details: Homo sapiens, Renal, 48 hrs exposure, read-out: Growth Inhibition GI50 TK-10
Procedure: as §1

[17] = test system: OVCAR-5; experiment: NCI SRB GI50 screen; format: cell-based; details: Homo sapiens, Ovarian, 48 hrs exposure, read-out: Growth Inhibition GI50 OVCAR-5
Procedure: as §1

[18] = test system: OVCAR-4; experiment: NCI SRB GI50 screen; format: cell-based; details: Homo sapiens, Ovarian, 48 hrs exposure, read-out: Growth Inhibition GI50 OVCAR-4
Procedure: as §1

[19] = test system: IGROV1; experiment: NCI SRB GI50 screen; format: cell-based; details: Homo sapiens, IGROV-1; Ovarian, 48 hrs exposure; read-out: Growth Inhibition GI50 IGROV1
Procedure: as §1

[20] = test system: KM12; experiment: NCI SRB GI50 screen; format: cell-based; details: Homo sapiens, Colon, 48 hrs exposure, read-out: Growth Inhibition GI50 KM12
Procedure: as §1

[21] = test system: LOX IMVI; experiment: NCI SRB GI50 screen; format: cell-based; details: Homo sapiens, Melanoma, 48 hrs exposure, read-out: Growth Inhibition GI50 LOX IMVI
Procedure: as §1

[22] = test system: A498; experiment: NCI SRB GI50 screen; format: cell-based; details: Homo sapiens, Renal, 48 hrs exposure, read-out: Growth Inhibition GI50 A498
Procedure: as §1

[23] = test system: NCI-H322M; experiment: NCI SRB GI50 screen; format: cell-based; details: Homo sapiens, Non-small lung, 48 hrs exposure, read-out: Growth Inhibition GI50 NCI-H322M
Procedure: as §1

[24] = test system: HT29; experiment: NCI SRB GI50 screen; format: cell-based; details: Homo sapiens, HT-29; Colon, 48 hrs exposure; read-out: Growth Inhibition GI50 HT29
Procedure: as §1

[25] = test system: SNB-75; experiment: NCI SRB GI50 screen; format: cell-based; details: Homo sapiens, CNS, 48 hrs exposure, read-out: Growth Inhibition GI50 SNB-75
Procedure: as §1

[26] = test system: OVCAR-3; experiment: NCI SRB GI50 screen; format: cell-based; details: Homo sapiens, Ovarian, 48 hrs exposure, read-out: Growth Inhibition GI50 OVCAR-3
Procedure: as §1

[27] = test system: HOP-92; experiment: NCI SRB GI50 screen; format: cell-based; details: Homo sapiens, Non-small lung, 48 hrs exposure, read-out: Growth Inhibition GI50 HOP-92
Procedure: as §1

[28] = test system: MALME-3M; experiment: NCI SRB GI50 screen; format: cell-based; details: Homo sapiens, read-out: Growth Inhibition GI50 MALME-3M, Melanoma, 48 hrs exposure
Procedure: as §1

[29] = test system: PC-3; experiment: NCI SRB GI50 screen; format: cell-based; details: Homo sapiens, Prostate, 48 hrs exposure, read-out: Growth Inhibition GI50 PC-3
Procedure: as §1

[30] = test system: NCI/ADR-RES; experiment: NCI SRB GI50 screen; format: cell-based; details: Homo sapiens, Ovarian, 48 hrs exposure, read-out: Growth Inhibition GI50 NCI/ADR-RES
Procedure: as §1

[31] = test system: NCI-H226; experiment: NCI SRB GI50 screen; format: cell-based; details: Homo sapiens, Non-small lung, 48 hrs exposure, read-out: Growth Inhibition GI50 NCI-H226
Procedure: as §1

SMILES | melting point | GI50 [1] [nM] | GI50 [2] [nM] | GI50 [3] [nM] | GI50 [4] [nM] | GI50 [5] [nM] | GI50 [6] [nM] | GI50 [7] [nM] | GI50 [8] [nM] | GI50 [9] [nM] | GI50 [10] [nM] | GI50 [11] [nM] | GI50 [12] [nM] | GI50 [13] [nM] | GI50 [14] [nM] | GI50 [15] [nM] | GI50 [17] [nM] | GI50 [18] [nM] | GI50 [19] [nM] | GI50 [20] [nM] | also measured
O=C(Nc1nc2ccc(F)cc2s1)c1cccnc1Nc1ccc(Cl)cc1 [Compound 9, N3-(6-fluoro-1,3-benzothiazol-2-yl)-2-(4-chloroanilino)nicotinamide] | 254 to 257 °C | 1610 | 1940 | 2300 | 2280 | 730 | 3930 | 1670 | 1740 | 2380 | 3650 | 1670 | 1940 | 2220 | 3030 | 2890 | 2630 | 2920 | 2000 | 2610 | GI50 [16]: 3000 nM; GI50 [21]: 2620 nM; GI50 [22]: 1920 nM; GI50 [23]: 3250 nM; GI50 [24]: 2860 nM; GI50 [25]: 2950 nM; GI50 [26]: 2170 nM; GI50 [27]: 1690 nM; GI50 [28]: 1940 nM; GI50 [29]: 2130 nM; GI50 [30]: 2090 nM; GI50 [31]: 2320 nM
O=C(Nc1nc2ccc(F)cc2s1)c1cccnc1Nc1ccc(Cl)cc1Cl [Compound 10, N3-(6-fluoro-1,3-benzothiazol-2-yl)-2-(2,4-dichloroanilino)nicotinamide] | 208 to 210 °C | 1880 | 1100 | 2320 | 3030 | 1930 | 3880 | 2340 | 1830 | 3070 | 3660 | 2190 | 2070 | 2270 | 2900 | 1500 | 4460 | 2960 | 1820 | 2900 | GI50 [16]: 3050 nM; GI50 [21]: 4190 nM; GI50 [22]: 2830 nM; GI50 [23]: 3240 nM; GI50 [24]: 2980 nM; GI50 [25]: 2550 nM; GI50 [26]: 2440 nM; GI50 [27]: 1480 nM; GI50 [28]: 2380 nM; GI50 [29]: 2110 nM; GI50 [30]: 2510 nM; GI50 [31]: 2700 nM
COc1cc(Nc2ncccc2C(=O)Nc2nc3ccc(F)cc3s2)cc(OC)c1OC [Compound 11, N3-(6-fluoro-1,3-benzothiazol-2-yl)-2-(3,4,5-trimethoxyanilino)nicotinamide] | 214 to 216 °C | 1220 | 3370 | 4730 | 2970 | 2300 | 6560 | 2270 | 1860 | 3230 | 3490 | 3490 | 2700 | 2110 | 3010 | 3150 | 25600 | 2730 | 1770 | 3790 | GI50 [21]: 3870 nM; GI50 [22]: 3450 nM; GI50 [23]: 3710 nM; GI50 [24]: 5150 nM; GI50 [25]: 4480 nM; GI50 [26]: 2770 nM; GI50 [27]: 1480 nM; GI50 [28]: 3270 nM; GI50 [29]: 2730 nM; GI50 [30]: 2920 nM; GI50 [31]: 2950 nM
COc1ccc2nc(NC(=O)c3cccnc3Nc3cc(OC)c(OC)c(OC)c3)sc2c1 [Compound 12, N-3-(6-methoxy-1,3-benzothiazol-2-yl)-2-(3,4,5-trimethoxyanilino) nicotinamide] | 121 to 125 °C (dec.) | 17800 | 9300 | 11700 | 2310 | 5060 | 4430 | 5380 | 32300 | 510 | 15000 | 4500 | 11500 | 24200 | 7100 | 16400 | 14500 | 15000 | 13200 | 4510 | GI50 [16]: 4310 nM; GI50 [21]: 15700 nM; GI50 [22]: 2190 nM; GI50 [23]: 17300 nM; GI50 [24]: 17700 nM; GI50 [25]: 2890 nM; GI50 [26]: 8920 nM; GI50 [27]: 2240 nM; GI50 [28]: 10100 nM; GI50 [29]: 6670 nM; GI50 [30]: 8970 nM; GI50 [31]: 10700 nM

— US9029553B2, “2-anilino nicotinyl linked 2-amino benzothiazole conjugates and process for the preparation thereof” (Council of Scientific & Industrial Research, priority 2011, dated 2015)
